Consider 3 molecules from patent US20050215582A1, “Substituted pyrrolopyridines” (priority 2002, published 2005).

The target in the assay is T1, recombinant human Itk kinase domain fused with GST (Homo sapiens, UniProt Q08881).
T1 construct: recombinant human Itk kinase domain fused with GST; GST (Glutathione S-Transferase); made in house; host or cells: High five insect cells
T1 sequence (Q08881 363-615 limits assumed): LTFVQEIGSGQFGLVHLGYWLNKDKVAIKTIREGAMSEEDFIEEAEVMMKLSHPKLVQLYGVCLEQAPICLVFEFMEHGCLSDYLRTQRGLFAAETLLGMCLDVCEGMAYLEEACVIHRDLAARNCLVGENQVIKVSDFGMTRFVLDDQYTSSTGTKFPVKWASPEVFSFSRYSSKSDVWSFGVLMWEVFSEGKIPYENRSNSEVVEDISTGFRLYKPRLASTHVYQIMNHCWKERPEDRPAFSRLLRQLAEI
In words: Itk LANCE TRF Assay. It is filed as biochemical. Particulars: 50 μM ATP, 2 μM biotinylated peptide substrate, 50 minutes RT; read-out: Inhibition of Kinase Itk (IC50 μM). On the procedure:
The Itk kinase assay utilized recombinant human Itk kinase domain fused with GST (Glutathione S-Transferase). The protein was expressed in High five insect cells, purified in one step on an affinity chromatography glutathione column and stored in 50 mM Tris/HCl (pH 7.6), 150 mM NaCl, 5% (w/v) mannitol, 1 mM DTT, 30% glycerol at −70° C. The kinase substrate used in the assay was a biotinylated peptide derived from the Src-optimal substrate (Nair et at, J. Med. Chem., 38: 4276, 1995; biotin-AEEEIYGEFEAKKKK).
The assay additions were as follows: Test compounds (or controls; 1 μL in 100% DMSO) were added to black 96-well flat-bottomed plates (Greiner 655076) followed by 20 μL Itk in assay buffer and the reaction was started by adding 20 μL ATP and peptide substrate in assay buffer. The assay buffer constitution during phosphorylation was: 50 mM HEPES (pH 6.8), 10 mM MgCl2, 0.015% Brij 35, 1 mM DTT, 10% glycerol, 160 ng/well Itk, 2 μM peptide substrate and 50 μM ATP. The assay was stopped after 50 minutes (RT) by adding 150 μL ice-cold Stop solution (50 mM Tris/HCl, pH 7.5, 10 mM EDTA, 0.9% NaCl and 0.1% BSA) together with LANCE reagents (2 nM PT66-Eu^3+, Wallac AD0069 and 5 μg/ml Streptavidin-APC, Wallac AD0059. Both concentrations were final in stopped assay solution). The plates were measured on a Wallac 1420 Victor 2 instrument with TRF settings after 1 h incubation, and the ratio (665 signal/615 signal)*10000 was used to calculate the inhibition values. IC50 values were determined using XLfit.

Structures can show the parent of a compound that is named as a salt.

In the case of `CN(C)CCCOc1ccc(-c2[nH]c3ncc(Cl)cc3c2C2CCNCC2)cc1` [Example 8, {3-[4-(5-Chloro-3-piperidin-4-yl-1H-pyrrolo[2,3-b]pyridin-2-yl)phenoxy]propyl}dimethylamine], the IC50 was 0.18 µM.

`Cc1cnc2[nH]c(-c3ccco3)c(C3CCCN(C(N)=O)C3)c2c1` (stereo not drawn) [Example 5, 3-[2-(2-Furyl)-5-methyl-1H-pyrrolo[2,3-b]pyridin-3-yl]piperidine-1-carboxamide]: the IC50 worked out at 0.26 µM.

`COc1ccc(-c2[nH]c3ncc(Br)cc3c2N2CCNCC2)cc1` [Example 21, 5-Bromo-2-(4-methoxy-phenyl)-3-piperazin-1-yl-1H-pyrrolo[2,3-b]pyridine trifluoroacetate]: the IC50 stood at 0.09 µM.
